Laboratory results reported in ChEMBL document CHEMBL1127566, “Thienyl and thiazolyl acyclic analogues of 5-deazatetrahydrofolic acid” (J Med Chem, 1994).

B1: Folylpolyglutamate synthase, mitochondrial (Homo sapiens), Q05932 (protein)
chain: MSRARSHLRAALFLAAASARGITTQVAARRGLSAWPVPQEPSMEYQDAVRMLNTLQTNAGYLEQVKRQRGDPQTQLEAMELYLARSGLQVEDLDRLNIIHVTGTKGKGSTCAFTECILRSYGLKTGFFSSPHLVQVRERIRINGQPISPELFTKYFWRLYHRLEETKDGSCVSMPPYFRFLTLMAFHVFLQEKVDLAVVEVGIGGAYDCTNIIRKPVVCGVSSLGIDHTSLLGDTVEKIAWQKGGIFKQGVPAFTVLQPEGPLAVLRDRAQQISCPLYLCPMLEALEEGGPPLTLGLEGEHQRSNAALALQLAHCWLQRQDRHGAGEPKASRPGLLWQLPLAPVFQPTSHMRLGLRNTEWPGRTQVLRRGPLTWYLDGAHTASSAQACVRWFRQALQGRERPSGGPEVRVLLFNATGDRDPAALLKLLQPCQFDYAVFCPNLTEVSSTGNADQQNFTVTLDQVLLRCLEHQQHWNHLDEEQASPDLWSAPSPEPGGSASLLLAPHPPHTCSASSLVFSCISHALQWISQGRDPIFQPPSPPKGLLTHPVAHSGASILREAAAIHVLVTGSLHLVGGVLKLLEPALSQ

Columns and labels:
[1] = system: MOLT-4; test: Ability to inhibit [3H]methotrexate transport into MOLT-4 cells in vitro; type: functional, cell-based; details: Homo sapiens
[2] = system: CCRF-CEM; test: In vitro antitumor activity was assessed from rate of cell growth of CCRF/CEM cell line; type: functional, cell-based; details: Homo sapiens
[3] = system: MCF7; test: Ability to inhibit growth of MCF-7 human breast adenocarcinoma in vitro; type: functional, cell-based
[4] = system: folylpolyglutamate synthase (FPGS); test: Km of Hog folyl-poly-glutamate synthase (FPGS) relative to aminopterin; design: species or system Sus scrofa; details: pig, hog folylpolyglutamate synthase (FPGS) enzyme
[5] = species: Sus scrofa; test: Vmax of Hog folyl-poly-glutamate synthase (FPGS) relative to aminopterin; details: pig, in vitro
[6] = substrate: Nc1nc(N)c(CCCNc2ccc(C(=O)N[C@@H](CCC(=O)O)C(=O)O)s2)c(O)n1; test: (§1) Km of Hog Folyl-polyglutamate synthase relative to aminopterin; details: Sus scrofa
[7] = substrate: Nc1nc(N)c(CCCNc2cnc(C(=O)N[C@@H](CCC(=O)O)C(=O)O)s2)c(O)n1; test: as §1; details: Sus scrofa
[8] = substrate: Nc1nc(N)c(CCCNc2ccc(C(=O)N[C@@H](CCC(=O)O)C(=O)O)s2)c(O)n1; test: (§2) Vmax of Hog Folyl-polyglutamate synthase relative to aminopterin; details: Sus scrofa
[9] = substrate: Nc1nc(N)c(CCCNc2cnc(C(=O)N[C@@H](CCC(=O)O)C(=O)O)s2)c(O)n1; test: as §2; details: Sus scrofa

| Molecule | IC50 [1] | IC50 [2] | IC50 [3] | other results |
| --- | --- | --- | --- | --- |
| Nc1nc2c(c(=O)[nH]1)C[C@@H](CCc1ccc(C(=O)N[C@@H](CCC(=O)O)C(=O)O)cc1)CN2 [LOMETREXOL] | 1500 nM | 15 nM | 18 nM | Km [4]: 17.5 µM; Vmax [5]: 97% |
| Nc1nc(N)c(CCCNc2ccc(C(=O)N[C@@H](CCC(=O)O)C(=O)O)cc2)c(O)n1 |  |  | 37 nM |  |
| Nc1nc(N)c(CCCNc2cnc(C(=O)N[C@@H](CCC(=O)O)C(=O)O)s2)c(O)n1 | 800 nM |  | 4 nM |  |
| Nc1nc(N)c(CCCNc2ccc(C(=O)N[C@@H](CCC(=O)O)C(=O)O)s2)c(O)n1 | 1600 nM |  | 38 nM |  |
| Nc1nc(O)c2c(n1)NCC(CCc1ccc(C(=O)N[C@@H](CCC(=O)O)C(=O)O)s1)C2 (stereo partly specified) |  | 2.3 nM |  |  |
| Nc1nc(O)c2c(n1)NCC(CCc1ccc(C(=O)N[C@@H](CCC(=O)O)C(=O)O)o1)C2 (stereo partly specified) |  | 27 nM |  |  |
| B1 |  |  |  | Km [6]: 9.3 µM; Km [7]: 8.6 µM; Vmax [8]: 118%; Vmax [9]: 99.3% |
